Reference: patent publication US20240390429A1, “METHOD AND FORMULATION FOR TREATING RESPIRATORY DISEASES” (ENTEROBIOME INC., priority 2019, published 2024)
In brackets after ≈: the same amount, converted by molar mass.

Experiments:
Format in all cases: cell-based
[1] = system: Akkermansia muciniphila ATCC BAA-835; experiment: MIC by broth microdilution (CLSI), type strain; settings: for MIC: Akkermansia muciniphila, ATCCBAA835, test strain ATCC BAA-835, broth microdilution; for Susceptibility category by MIC breakpoints: test strain ATCC BAA-835, breakpoints per antibiotic in c1-c3
[2] = system: Akkermansia muciniphila EB-AMDK19; experiment: MIC by broth microdilution (CLSI), isolated strain; settings: for MIC: Akkermansia muciniphila, EBAMDK19, test strain EB-AMDK19, broth microdilution; for Susceptibility category by MIC breakpoints: test strain EB-AMDK19, breakpoints per antibiotic in c1-c3
[3] = system: Bacteroides thetiotaomicron ATCC 29741; experiment: MIC by broth microdilution (CLSI), QC strain

Compound: CCC[C@@H]1C[C@@H](C(=O)N[C@@H]([C@H]2O[C@H](SC)[C@H](O)[C@@H](O)[C@H]2O)[C@H](C)Cl)N(C)C1 [CLI, clindamycin]
- MIC [1]: ≤ 0.125 µg/mL
- Susceptibility category by MIC breakpoints [1]: (S)
- MIC [2]: 4 µg/mL (≈ 9.41 µM)
- Susceptibility category by MIC breakpoints [2]: (I)

Compound: Piperacillin-tazobactam [PTZ]
- MIC ([3]; QC strain ATCC 29741, broth microdilution): 8/4
- Susceptibility category by MIC breakpoints [1]: (S)
- Susceptibility category by MIC breakpoints [2]: (S)

Compound: O=C(N[C@H](CO)[C@H](O)c1ccc([N+](=O)[O-])cc1)C(Cl)Cl [CHL, chloramphenicol]
- MIC ([3]; Bacteroides, ATCC29741): 8 µg/mL (≈ 24.8 µM)
- MIC [1]: 4 µg/mL (≈ 12.4 µM)
- Susceptibility category by MIC breakpoints [1]: (S)
- MIC [2]: 4 µg/mL (≈ 12.4 µM)
- Susceptibility category by MIC breakpoints [2]: (S)

Compound: C[C@@H](O)[C@H]1C(=O)N2C(C(=O)O)=C(S[C@@H]3CN[C@H](C(=O)N(C)C)C3)[C@H](C)[C@H]12 [MEM, meropenem]
- MIC ([3]; Bacteroides, ATCC29741): 0.5 µg/mL (≈ 1.3 µM)
- MIC [1]: 1 µg/mL (≈ 2.61 µM)
- Susceptibility category by MIC breakpoints [1]: (S)
- MIC [2]: 0.5 µg/mL (≈ 1.3 µM)
- Susceptibility category by MIC breakpoints [2]: (S)

Compound: Cc1ncc([N+](=O)[O-])n1CCO [MTZ, metronidazole]
- MIC ([3]; Bacteroides, ATCC29741): 2 µg/mL (≈ 11.7 µM)
- MIC [1]: ≤ 0.25 µg/mL
- Susceptibility category by MIC breakpoints [1]: (S)
- MIC [2]: 0.5 µg/mL (≈ 2.92 µM)
- Susceptibility category by MIC breakpoints [2]: (S)

Compound: CO/N=C(\C(=O)N[C@@H]1C(=O)N2C(C(=O)O)=CCS[C@H]12)c1csc(N)n1 [CTZ, ceftizoxime]
- MIC ([3]; Bacteroides, ATCC29741): 16 µg/mL (≈ 41.7 µM)
- MIC [1]: 2 µg/mL (≈ 5.22 µM)
- Susceptibility category by MIC breakpoints [1]: (S)
- MIC [2]: 1 µg/mL (≈ 2.61 µM)
- Susceptibility category by MIC breakpoints [2]: (S)

Compound: COc1c(N2C[C@@H]3CCCN[C@@H]3C2)c(F)cc2c(=O)c(C(=O)O)cn(C3CC3)c12 [MXF, moxifloxacin]
- MIC ([3]; Bacteroides, ATCC29741): 8 µg/mL (≈ 19.9 µM)
- MIC [1]: > 32 µg/mL
- Susceptibility category by MIC breakpoints [1]: (R)
- MIC [2]: > 32 µg/mL
- Susceptibility category by MIC breakpoints [2]: (R)
